From ChEMBL document CHEMBL3885861, “Open TG-GATES”

Species: Rattus norvegicus
Experiment: Open TG-GATES - Regimen: Single
Type: toxicity, organism-based, Sprague-Dawley
Set-up: regimen Single, gender Male, age 6 weeks
Details: in vivo, po, 0 mg/kg, route gavage, dose level Control; for APTT / Bas / Eos / Fbg / Hb / Ht / Lym / MCH / MCHC / MCV / Mono / Neu / PT / Plat / RBC / Ret / WBC: tissue Blood; for KIDNEY_L / KIDNEY_R / KIDNEY_TOTAL: tissue Kidney; for LIVER: tissue Liver; for A/G / ALP / ALT / AST / BUN / CRE / Ca / Cl / DBIL / GLC / IP / K / LDH / Na / PL / RALB / TBIL / TC / TG / TP / gamma-GTP: tissue Plasma

CCOc1ccc(NC(=O)CC(C)O)cc1 (stereo unspecified) [BUCETIN]
TERMINAL_BW (3 h): 208.8 g | APTT (3 h): 14.7 s | Bas (3 h): 0% | Eos (3 h): 1% | Fbg (3 h): 294.8 mg/dL | Hb (3 h): 12.7 g/dL | Ht (3 h): 38.3% | Lym (3 h): 78.2% | MCH (3 h): 21.4 pg | MCHC (3 h): 33.2% | MCV (3 h): 64.5 fL | Mono (3 h): 3.2% | Neu (3 h): 17.2% | PT (3 h): 13.6 s | Plat (3 h): 115.4 x10_4/uL | RBC (3 h): 594.2 x10_4/ul | Ret (3 h): 8.7% | WBC (3 h): 84.1 x10_2/uL | KIDNEY_L (3 h): 0.9 g | KIDNEY_R (3 h): 0.9 g | KIDNEY_TOTAL (3 h): 1.8 g | LIVER (3 h): 9.1 g | A/G (3 h): 0.9 | ALP (3 h): 1389.8 IU/L | ALT (3 h): 35.8 IU/L | AST (3 h): 75 IU/L | BUN (3 h): 9.8 mg/dL | CRE (3 h): 0.2 mg/dL | Ca (3 h): 10.6 mg/dL | Cl (3 h): 105.2 meq/L | DBIL (3 h): 0.02 mg/dL | GLC (3 h): 178 mg/dL | IP (3 h): 8.6 mg/dL | K (3 h): 4.3 meq/L | LDH (3 h): 77.2 IU/L | Na (3 h): 141.8 meq/L | PL (3 h): 143.4 mg/dL | RALB (3 h): 2.5 g/dL | TBIL (3 h): 0.06 mg/dL | TC (3 h): 81.6 mg/dL | TG (3 h): 50.4 mg/dL | TP (3 h): 5.4 g/dL | gamma-GTP (3 h): 2 IU/L | TERMINAL_BW (6 h): 211.1 g | APTT (6 h): 16.7 s | Bas (6 h): 0.2% | Eos (6 h): 1% | Fbg (6 h): 303.8 mg/dL | Hb (6 h): 13.3 g/dL | Ht (6 h): 40% | Lym (6 h): 83.6% | MCH (6 h): 21.4 pg | MCHC (6 h): 33.3% | MCV (6 h): 64.4 fL | Mono (6 h): 1.8% | Neu (6 h): 13% | PT (6 h): 13.4 s | Plat (6 h): 117.3 x10_4/uL | RBC (6 h): 619.6 x10_4/ul | Ret (6 h): 8.6% | WBC (6 h): 97.2 x10_2/uL | KIDNEY_L (6 h): 0.9 g | KIDNEY_R (6 h): 0.9 g | KIDNEY_TOTAL (6 h): 1.9 g | LIVER (6 h): 8.9 g | A/G (6 h): 0.9 | ALP (6 h): 1305.2 IU/L | ALT (6 h): 32.4 IU/L | AST (6 h): 66.4 IU/L | BUN (6 h): 8.8 mg/dL | CRE (6 h): 0.2 mg/dL | Ca (6 h): 10.8 mg/dL | Cl (6 h): 105.6 meq/L | DBIL (6 h): 0.016 mg/dL | GLC (6 h): 178.2 mg/dL | IP (6 h): 9.2 mg/dL | K (6 h): 4.3 meq/L | LDH (6 h): 70.4 IU/L | Na (6 h): 142.8 meq/L | PL (6 h): 143.2 mg/dL | RALB (6 h): 2.5 g/dL | TBIL (6 h): 0.058 mg/dL | TC (6 h): 77.6 mg/dL | TG (6 h): 62.8 mg/dL | TP (6 h): 5.4 g/dL | gamma-GTP (6 h): 1.4 IU/L
